Data on three molecules can be found in ChEMBL document CHEMBL3856204, “Chiral 6-aryl-furo[2,3-d]pyrimidin-4-amines as EGFR inhibitors” (Eur J Med Chem, 2016).

The target in assay [1] is T1, Serine/threonine-protein kinase Chk1 (Homo sapiens) (UniProt O14757).
T1 sequence (whole entry): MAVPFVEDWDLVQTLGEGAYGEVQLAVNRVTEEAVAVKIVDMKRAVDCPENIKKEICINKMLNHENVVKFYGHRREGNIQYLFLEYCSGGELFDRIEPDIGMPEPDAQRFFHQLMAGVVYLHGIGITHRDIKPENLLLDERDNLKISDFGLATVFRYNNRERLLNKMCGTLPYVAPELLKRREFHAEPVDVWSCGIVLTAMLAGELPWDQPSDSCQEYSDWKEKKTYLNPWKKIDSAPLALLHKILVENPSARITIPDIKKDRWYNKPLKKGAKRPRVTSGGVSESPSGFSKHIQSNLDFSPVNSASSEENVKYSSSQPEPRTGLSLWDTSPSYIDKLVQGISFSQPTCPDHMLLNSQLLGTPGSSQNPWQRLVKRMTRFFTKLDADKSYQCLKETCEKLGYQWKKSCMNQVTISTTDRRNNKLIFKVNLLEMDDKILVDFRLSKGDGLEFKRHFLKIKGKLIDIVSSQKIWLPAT
Nature of the assay: Inhibition of His tagged recombinant full length human CHK1 expressed in baculovirus at 500 nM by Z'-LYTE assay.

Assay [2] deals with Tyrosine-protein kinase Yes (Homo sapiens) (UniProt P07947). The assay is described as follows: Inhibition of GST tagged recombinant full length human YES1 expressed in baculovirus at 500 nM by Z'-LYTE assay.
Assay [3] has as its target Fibroblast growth factor receptor 1 (Homo sapiens) (UniProt P11362). The assay is described as follows: Inhibition of His tagged recombinant human FGFR1 cytoplasmic domain (308 to 731 residues) expressed in baculovirus at 500 nM by Z'-LYTE assay.
Assay [4] has as its target Tyrosine-protein kinase HCK (Homo sapiens) (UniProt P08631). The assay is described as follows: Inhibition of recombinant full length human N-terminal GST-tagged HCK expressed in baculovirus at 500 nM by Z'-LYTE assay.
Assay [5] concerns the target Glycogen synthase kinase-3 beta (Homo sapiens) (UniProt P49841). The assay is described as follows: Inhibition of His tagged recombinant full length human GSK3B expressed in baculovirus at 500 nM by Z'-LYTE assay.
Assay [6] addresses Tyrosine-protein kinase SYK (Homo sapiens) (UniProt P43405). The assay is described as follows: Inhibition of recombinant full length human N-terminal GST-tagged SYK expressed in baculovirus at 500 nM by Z'-LYTE assay.
Assay [7] has as its target Focal adhesion kinase 1 (Homo sapiens) (UniProt Q05397). The assay is described as follows: Inhibition of GST tagged recombinant full length human PTK2 expressed in baculovirus at 500 nM by Z'-LYTE assay.
The target in assay [8] is cAMP-dependent protein kinase catalytic subunit alpha (Homo sapiens) (UniProt P17612). Nature of the assay: Inhibition of His tagged recombinant human PRKACA catalytic domain (1 to 351 residues) expressed in Escherichia coli at 500 nM by Z'-LYTE assay.
Assay [9] concerns the target T2, Ephrin type-B receptor 1 (Homo sapiens) (UniProt P54762).
T2 sequence (whole entry): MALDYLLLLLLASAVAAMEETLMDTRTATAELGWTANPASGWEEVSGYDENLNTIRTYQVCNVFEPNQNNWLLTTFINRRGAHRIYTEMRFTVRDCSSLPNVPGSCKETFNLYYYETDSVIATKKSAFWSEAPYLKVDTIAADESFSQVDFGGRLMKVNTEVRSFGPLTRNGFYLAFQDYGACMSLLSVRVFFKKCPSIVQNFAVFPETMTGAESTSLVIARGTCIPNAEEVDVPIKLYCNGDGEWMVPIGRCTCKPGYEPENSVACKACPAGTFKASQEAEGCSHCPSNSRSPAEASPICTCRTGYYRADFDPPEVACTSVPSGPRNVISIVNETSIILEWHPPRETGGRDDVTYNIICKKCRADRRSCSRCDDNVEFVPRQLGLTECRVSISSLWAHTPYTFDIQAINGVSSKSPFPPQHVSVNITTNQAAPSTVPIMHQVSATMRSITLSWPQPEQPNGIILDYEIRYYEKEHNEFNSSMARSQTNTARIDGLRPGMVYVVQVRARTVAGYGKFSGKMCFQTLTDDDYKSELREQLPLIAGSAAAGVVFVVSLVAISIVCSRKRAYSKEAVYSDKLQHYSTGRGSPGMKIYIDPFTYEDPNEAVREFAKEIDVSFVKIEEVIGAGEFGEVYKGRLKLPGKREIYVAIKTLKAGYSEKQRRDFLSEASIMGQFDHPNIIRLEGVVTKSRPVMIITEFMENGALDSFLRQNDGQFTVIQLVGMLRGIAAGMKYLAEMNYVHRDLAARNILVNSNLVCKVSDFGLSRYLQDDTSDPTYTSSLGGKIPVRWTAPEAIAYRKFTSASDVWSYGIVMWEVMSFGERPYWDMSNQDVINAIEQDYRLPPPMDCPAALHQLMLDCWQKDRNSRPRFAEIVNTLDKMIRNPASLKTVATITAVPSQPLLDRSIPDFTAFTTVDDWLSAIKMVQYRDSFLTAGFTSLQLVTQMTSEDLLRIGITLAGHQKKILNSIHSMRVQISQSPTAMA
The assay is described as follows: Inhibition of GST tagged recombinant human EPHB1 cytoplasmic domain (613 to 881 residues) expressed in baculovirus at 500 nM by Z'-LYTE assay.

The target of assay [10] is Platelet-derived growth factor receptor alpha (Homo sapiens) (UniProt P16234). The assay is described as follows: Inhibition of GST tagged recombinant human PGFRA cytoplasmic domain (550 to 1089 residues) expressed in baculovirus at 500 nM by Z'-LYTE assay.
Platelet-derived growth factor receptor alpha (Homo sapiens), sequence (P16234 whole entry, the tested form may be a part): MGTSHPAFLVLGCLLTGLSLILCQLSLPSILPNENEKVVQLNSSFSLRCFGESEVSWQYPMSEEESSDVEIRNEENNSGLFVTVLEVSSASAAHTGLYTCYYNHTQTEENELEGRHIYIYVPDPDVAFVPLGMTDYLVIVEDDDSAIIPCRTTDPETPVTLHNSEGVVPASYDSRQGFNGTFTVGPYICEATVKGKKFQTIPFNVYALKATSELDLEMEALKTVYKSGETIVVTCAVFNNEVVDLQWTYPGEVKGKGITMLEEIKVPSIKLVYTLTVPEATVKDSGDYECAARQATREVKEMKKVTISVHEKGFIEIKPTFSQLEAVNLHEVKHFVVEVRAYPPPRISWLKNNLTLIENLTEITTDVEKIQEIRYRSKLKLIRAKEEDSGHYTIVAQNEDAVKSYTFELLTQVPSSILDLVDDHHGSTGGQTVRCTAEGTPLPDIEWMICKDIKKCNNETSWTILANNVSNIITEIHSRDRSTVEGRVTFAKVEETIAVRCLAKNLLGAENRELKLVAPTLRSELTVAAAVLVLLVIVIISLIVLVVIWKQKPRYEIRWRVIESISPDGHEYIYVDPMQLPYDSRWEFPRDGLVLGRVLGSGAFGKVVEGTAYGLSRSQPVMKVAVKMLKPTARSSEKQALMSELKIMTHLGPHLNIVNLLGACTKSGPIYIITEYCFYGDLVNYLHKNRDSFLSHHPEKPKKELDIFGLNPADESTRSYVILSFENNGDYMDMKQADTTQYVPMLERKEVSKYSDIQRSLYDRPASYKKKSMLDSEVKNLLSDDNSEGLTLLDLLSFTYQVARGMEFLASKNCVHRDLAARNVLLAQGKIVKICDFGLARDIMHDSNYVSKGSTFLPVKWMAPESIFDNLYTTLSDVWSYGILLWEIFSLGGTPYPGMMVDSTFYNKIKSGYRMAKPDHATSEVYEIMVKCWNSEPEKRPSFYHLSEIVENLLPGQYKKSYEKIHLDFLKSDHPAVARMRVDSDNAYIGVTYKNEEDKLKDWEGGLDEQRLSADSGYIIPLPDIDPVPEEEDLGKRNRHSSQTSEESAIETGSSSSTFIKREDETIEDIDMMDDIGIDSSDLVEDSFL
Assay [11] deals with Tyrosine-protein kinase Fer (Homo sapiens) (UniProt P16591). The assay is described as follows: Inhibition of recombinant human GST-tagged FER (541 to 822 residues) expressed in baculovirus at 500 nM by Z'-LYTE assay- tagged.
Tyrosine-protein kinase Fer (Homo sapiens), sequence (P16591 whole entry, looked up, the tested form may be a part): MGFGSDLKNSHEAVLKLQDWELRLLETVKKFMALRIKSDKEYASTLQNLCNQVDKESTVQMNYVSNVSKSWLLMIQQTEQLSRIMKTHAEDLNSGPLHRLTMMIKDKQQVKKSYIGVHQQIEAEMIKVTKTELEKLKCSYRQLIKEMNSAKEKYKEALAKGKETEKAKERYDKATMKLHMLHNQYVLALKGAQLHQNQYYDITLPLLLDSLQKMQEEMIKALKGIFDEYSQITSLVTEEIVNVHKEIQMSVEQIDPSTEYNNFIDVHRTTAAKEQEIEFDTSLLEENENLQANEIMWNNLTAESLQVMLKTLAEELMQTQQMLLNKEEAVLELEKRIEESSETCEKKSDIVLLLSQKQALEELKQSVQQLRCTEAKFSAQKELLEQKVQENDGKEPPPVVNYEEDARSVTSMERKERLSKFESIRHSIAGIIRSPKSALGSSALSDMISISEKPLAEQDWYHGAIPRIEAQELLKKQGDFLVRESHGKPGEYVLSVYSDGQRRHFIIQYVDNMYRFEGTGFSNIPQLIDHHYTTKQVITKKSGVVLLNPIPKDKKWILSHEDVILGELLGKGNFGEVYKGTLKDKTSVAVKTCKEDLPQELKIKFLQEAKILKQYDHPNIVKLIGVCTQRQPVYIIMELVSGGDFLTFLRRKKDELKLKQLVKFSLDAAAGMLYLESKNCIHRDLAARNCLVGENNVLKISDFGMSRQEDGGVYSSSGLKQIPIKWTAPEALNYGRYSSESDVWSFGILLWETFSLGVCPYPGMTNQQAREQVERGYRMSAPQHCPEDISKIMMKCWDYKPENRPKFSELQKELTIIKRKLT
Assay [12] deals with Dual specificity mitogen-activated protein kinase kinase 1 (Homo sapiens) (UniProt Q02750). The assay is described as follows: Inhibition of His tagged recombinant full length human MEK1 expressed in baculovirus at 500 nM by Z'-LYTE assay.
Dual specificity mitogen-activated protein kinase kinase 1 (Homo sapiens), sequence (Q02750 whole entry): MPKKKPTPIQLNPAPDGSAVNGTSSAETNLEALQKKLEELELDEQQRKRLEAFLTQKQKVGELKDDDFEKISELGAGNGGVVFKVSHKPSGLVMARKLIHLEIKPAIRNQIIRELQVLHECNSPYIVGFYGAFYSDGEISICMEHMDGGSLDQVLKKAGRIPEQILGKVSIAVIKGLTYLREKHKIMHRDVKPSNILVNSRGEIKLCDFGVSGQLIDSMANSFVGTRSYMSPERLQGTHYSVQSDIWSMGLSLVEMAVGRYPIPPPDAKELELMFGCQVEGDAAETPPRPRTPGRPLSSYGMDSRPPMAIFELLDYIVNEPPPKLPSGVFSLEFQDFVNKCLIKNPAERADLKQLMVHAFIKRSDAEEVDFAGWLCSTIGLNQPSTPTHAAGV
Assay [13] addresses Protein kinase C theta type (Homo sapiens) (UniProt Q04759). The assay is described as follows: Inhibition of His tagged recombinant full length human PRKCQ expressed in baculovirus at 500 nM by Z'-LYTE assay.
Assay [14] deals with MAP kinase-activated protein kinase 2 (Homo sapiens) (UniProt P49137). Nature of the assay: Inhibition of His tagged recombinant full length human MAPKAPK2 expressed in Escherichia coli at 500 nM by Z'-LYTE assay.
Assay [15] deals with Platelet-derived growth factor receptor beta (Homo sapiens) (UniProt P09619). Nature of the assay: Inhibition of His tagged recombinant human PDGFRB cytoplasmic domain (558 to 1106 residues) expressed in baculovirus at 500 nM by Z'-LYTE assay.
Platelet-derived growth factor receptor beta (Homo sapiens), sequence (P09619 whole entry, the tested form may be a part): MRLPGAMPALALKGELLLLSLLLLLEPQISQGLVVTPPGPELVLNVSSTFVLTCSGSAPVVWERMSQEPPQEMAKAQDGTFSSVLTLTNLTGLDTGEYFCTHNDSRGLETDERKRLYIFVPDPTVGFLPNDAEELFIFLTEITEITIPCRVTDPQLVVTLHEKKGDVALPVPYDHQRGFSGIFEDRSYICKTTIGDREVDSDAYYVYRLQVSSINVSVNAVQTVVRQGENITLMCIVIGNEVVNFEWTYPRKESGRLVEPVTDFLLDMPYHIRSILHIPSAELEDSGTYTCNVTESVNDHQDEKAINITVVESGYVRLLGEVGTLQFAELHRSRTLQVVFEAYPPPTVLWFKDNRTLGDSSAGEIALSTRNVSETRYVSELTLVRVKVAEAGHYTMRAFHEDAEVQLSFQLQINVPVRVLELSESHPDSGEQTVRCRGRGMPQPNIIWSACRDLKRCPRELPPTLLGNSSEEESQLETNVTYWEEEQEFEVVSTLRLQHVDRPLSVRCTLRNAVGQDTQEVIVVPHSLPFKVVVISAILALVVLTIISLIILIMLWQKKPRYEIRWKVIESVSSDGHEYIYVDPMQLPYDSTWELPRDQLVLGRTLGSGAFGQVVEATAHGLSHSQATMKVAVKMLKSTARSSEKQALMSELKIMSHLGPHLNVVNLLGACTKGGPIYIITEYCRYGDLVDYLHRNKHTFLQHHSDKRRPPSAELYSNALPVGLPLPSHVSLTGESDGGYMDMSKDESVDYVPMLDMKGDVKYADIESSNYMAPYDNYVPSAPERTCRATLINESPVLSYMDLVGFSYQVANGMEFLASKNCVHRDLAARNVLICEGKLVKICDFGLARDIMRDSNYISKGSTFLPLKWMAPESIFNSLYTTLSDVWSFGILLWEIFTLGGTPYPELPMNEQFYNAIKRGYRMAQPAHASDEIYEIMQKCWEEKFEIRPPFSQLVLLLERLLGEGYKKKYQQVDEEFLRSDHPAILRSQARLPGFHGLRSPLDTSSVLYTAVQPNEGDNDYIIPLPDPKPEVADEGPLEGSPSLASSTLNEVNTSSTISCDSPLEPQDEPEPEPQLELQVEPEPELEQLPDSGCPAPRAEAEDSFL
Assay [16] addresses Aurora kinase B (Homo sapiens) (UniProt Q96GD4). Nature of the assay: Inhibition of His tagged recombinant full length human Aurora B expressed in baculovirus at 500 nM by Z'-LYTE assay.
Assay [17] addresses Vascular endothelial growth factor receptor 2 (Homo sapiens) (UniProt P35968). The assay is described as follows: Inhibition of His tagged recombinant human KDR (789 to 1356 residues) expressed in baculovirus at 500 nM by Z'-LYTE assay.

Tyrosine-protein kinase HCK (Homo sapiens), sequence (P08631 2-526 limits assumed): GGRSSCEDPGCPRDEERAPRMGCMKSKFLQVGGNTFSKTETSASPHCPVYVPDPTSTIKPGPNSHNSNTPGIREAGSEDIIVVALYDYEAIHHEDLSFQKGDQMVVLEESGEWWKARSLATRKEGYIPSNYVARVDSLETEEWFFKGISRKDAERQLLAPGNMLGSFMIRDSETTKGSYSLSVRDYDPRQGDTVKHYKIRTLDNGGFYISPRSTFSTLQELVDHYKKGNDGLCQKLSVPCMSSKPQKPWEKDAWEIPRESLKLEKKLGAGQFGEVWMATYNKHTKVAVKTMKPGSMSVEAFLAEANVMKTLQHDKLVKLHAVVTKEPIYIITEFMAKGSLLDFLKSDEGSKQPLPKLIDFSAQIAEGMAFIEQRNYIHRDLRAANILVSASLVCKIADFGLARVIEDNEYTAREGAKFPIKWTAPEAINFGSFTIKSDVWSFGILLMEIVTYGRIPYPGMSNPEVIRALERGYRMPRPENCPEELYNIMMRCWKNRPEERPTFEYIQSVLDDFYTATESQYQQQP
Glycogen synthase kinase-3 beta (Homo sapiens), sequence (P49841 whole entry, looked up): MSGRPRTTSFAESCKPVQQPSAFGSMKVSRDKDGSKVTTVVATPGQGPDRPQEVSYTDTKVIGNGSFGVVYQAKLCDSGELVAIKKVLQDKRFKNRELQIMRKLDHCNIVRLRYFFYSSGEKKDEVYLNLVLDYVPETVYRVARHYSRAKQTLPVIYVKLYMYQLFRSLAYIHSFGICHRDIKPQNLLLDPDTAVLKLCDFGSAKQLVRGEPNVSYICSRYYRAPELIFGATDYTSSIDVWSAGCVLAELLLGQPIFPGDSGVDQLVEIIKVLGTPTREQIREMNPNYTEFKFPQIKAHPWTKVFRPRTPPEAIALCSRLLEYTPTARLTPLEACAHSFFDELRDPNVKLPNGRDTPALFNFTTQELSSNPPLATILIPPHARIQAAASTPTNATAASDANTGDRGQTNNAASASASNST
Protein kinase C theta type (Homo sapiens), sequence (Q04759 whole entry, looked up): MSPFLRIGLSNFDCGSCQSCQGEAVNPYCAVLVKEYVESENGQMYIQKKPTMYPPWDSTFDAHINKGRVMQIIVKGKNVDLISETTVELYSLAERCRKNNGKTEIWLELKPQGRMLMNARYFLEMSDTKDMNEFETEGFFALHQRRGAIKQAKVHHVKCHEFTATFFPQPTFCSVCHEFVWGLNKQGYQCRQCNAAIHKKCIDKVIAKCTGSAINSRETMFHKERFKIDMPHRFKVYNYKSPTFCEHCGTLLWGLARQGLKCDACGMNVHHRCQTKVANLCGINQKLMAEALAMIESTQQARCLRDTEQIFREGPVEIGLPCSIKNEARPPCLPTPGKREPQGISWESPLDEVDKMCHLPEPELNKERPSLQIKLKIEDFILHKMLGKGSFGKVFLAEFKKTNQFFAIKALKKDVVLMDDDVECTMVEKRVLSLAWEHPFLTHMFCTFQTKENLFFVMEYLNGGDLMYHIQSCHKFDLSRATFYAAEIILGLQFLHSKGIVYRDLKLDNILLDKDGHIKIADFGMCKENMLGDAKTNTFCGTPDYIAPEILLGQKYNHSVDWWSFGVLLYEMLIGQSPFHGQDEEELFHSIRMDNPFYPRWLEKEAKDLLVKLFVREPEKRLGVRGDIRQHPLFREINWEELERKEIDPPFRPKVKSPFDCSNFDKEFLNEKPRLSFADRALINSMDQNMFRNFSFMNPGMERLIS

For `C[C@@H](Nc1ncnc2oc(-c3ccc(NCCN(C)C)cc3)cc12)c1ccccc1`, the inhibition (usually the change of the read-out against control, counted positive when it falls) in [1] is -2%; in [2], 51%; in [3], 6%; in [4], 21%; in assay [5], 4%; in assay [6], 8%. The inhibition in [7] worked out at 7%; in assay [8], 8%; in [9], 17%; in assay [10], 27%; in [11], 6%; in [12] it was 10%. Also, the inhibition was 10% in assay [13]; 3% in assay [14]; 10% in [15]; 7 to 34% in assay [16]; 37% in assay [17].
As for `C[C@@H](Nc1ncnc2oc(-c3ccc(NCCN4CCCCC4)cc3)cc12)c1ccccc1`, the inhibition was -9% in assay [1]; 54% in [2]; 6% in [3]; 20% in assay [4]; 4% in assay [5]; 11% in assay [6]. Moreover, the inhibition in assay [7] worked out at 16%; in [8], 5%; in assay [9] it was 17%; in assay [10], 22%; in [11], 4%; in [12] it was 10%. In addition, the inhibition was 7% in [13]; 4% in assay [14]; 5% in [15]; 13 to 31% in assay [16]; 44% in assay [17].
Regarding `C#Cc1cccc(Nc2ncnc3cc(OCCOC)c(OCCOC)cc23)c1`, the inhibition in assay [1] was -7%; in [2], 29%; in assay [3], -4%; in assay [4], 18%; in assay [5], -8%; in assay [6], 14%. For the same molecule, the inhibition in assay [7] was -3%; in assay [8], -10%; in assay [9] it was 11%; in assay [10], 5%; in [11] it was -1%; in assay [12], 7%. The inhibition in assay [13] was -4%; in [14], -1%; in assay [15], -5%; in assay [16] it was 20 to 44%; in [17] it was 70%.
